ChEMBL document CHEMBL6083227, “Novel sulfonamides unveiled as potent anti-lung cancer agents via tumor pyruvate kinase M2 activation” (RSC Med Chem, 2024)

Key:
[1] = tested on: A549; assay: Antiproliferative activity against human A549 cells incubated for 48 hrs by Alamar blue staining based assay; settings: A549, 48 h
[2] = tested on: BEAS-2B; assay: Antiproliferative activity against human BEAS-2B cells incubated for 48 hrs by Alamar blue staining based assay
[3] = biological target: Pyruvate kinase PKM (Homo sapiens, UniProt P14618); assay: Activation of recombinant human PKM2 using pyruvate as substrate measured for 20 mins in presence of beta-NADH by LDH-coupled assay
Chain of Pyruvate kinase PKM (P14618 whole entry): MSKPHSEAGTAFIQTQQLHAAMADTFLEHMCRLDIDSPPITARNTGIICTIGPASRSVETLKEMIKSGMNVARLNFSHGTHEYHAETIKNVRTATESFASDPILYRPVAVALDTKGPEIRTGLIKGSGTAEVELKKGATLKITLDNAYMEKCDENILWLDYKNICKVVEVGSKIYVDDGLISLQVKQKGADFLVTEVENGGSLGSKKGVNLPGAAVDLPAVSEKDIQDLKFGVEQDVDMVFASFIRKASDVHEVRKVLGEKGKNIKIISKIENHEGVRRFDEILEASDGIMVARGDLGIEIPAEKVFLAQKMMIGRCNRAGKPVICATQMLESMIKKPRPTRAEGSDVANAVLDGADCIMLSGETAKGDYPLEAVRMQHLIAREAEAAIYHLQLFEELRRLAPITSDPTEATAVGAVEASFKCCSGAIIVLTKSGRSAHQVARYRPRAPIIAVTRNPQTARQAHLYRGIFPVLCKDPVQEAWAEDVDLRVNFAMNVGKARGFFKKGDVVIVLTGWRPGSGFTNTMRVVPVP

O=C(CN1CCN(S(=O)(=O)c2cccc(Br)c2)CC1)c1cnc2ccccn12
IC50 [1]: 1.67 µM | IC50 [2]: 39.9 µM | EC50 [3]: 0.606 µM

O=C(CN1CCN(S(=O)(=O)C2CCCCC2)CC1)c1cnc2ccccn12
IC50 [1]: 1.65 µM | IC50 [2]: 60.6 µM | EC50 [3]: 0.889 µM

O=C(CN1CCN(S(=O)(=O)c2cccs2)CC1)c1cnc2ccccn12
IC50 [1]: 1.14 µM | IC50 [2]: 30.5 µM | EC50 [3]: 0.134 µM

N#Cc1ccccc1S(=O)(=O)N1CCN(CC(=O)c2cnc3ccccn23)CC1
IC50 [1]: 1.51 µM | IC50 [2]: 55.7 µM | EC50 [3]: 0.147 µM

O=C(CN1CCN(S(=O)(=O)c2ccc(F)cc2Cl)CC1)c1cnc2ccccn12
IC50 [1]: 0.95 µM | IC50 [2]: 37.8 µM | EC50 [3]: 0.205 µM

O=C(CN1CCN(S(=O)(=O)C2CC2)CC1)c1cnc2ncccn12
IC50 [1]: 1.76 µM | IC50 [2]: 53.5 µM | EC50 [3]: 0.092 µM

O=C(CN1CCN(S(=O)(=O)c2ccc(F)cc2Cl)CC1)c1cnc2ncccn12
IC50 [1]: 1.72 µM | IC50 [2]: 16.8 µM | EC50 [3]: 0.612 µM

Cc1cc(C)c(S(=O)(=O)N2CCN(CC(=O)c3cnc4ccccn34)CC2)c(C)c1
IC50 [1]: 1.68 µM | IC50 [2]: 11.5 µM | EC50 [3]: 0.181 µM

O=C(CN1CCN(S(=O)(=O)c2ccc(C(F)(F)F)cc2)CC1)c1cnc2ncccn12
IC50 [1]: 1.23 µM | IC50 [2]: 15.9 µM | EC50 [3]: 0.211 µM

COc1ccc(Br)cc1S(=O)(=O)N1CCN(CC(=O)c2cnc3ccccn23)CC1
IC50 [1]: 1.44 µM | IC50 [2]: 30.9 µM | EC50 [3]: 0.329 µM

O=C(CN1CCN(S(=O)(=O)c2ccccc2)CC1)c1cnc2ccccn12
IC50 [1]: 1.69 µM | IC50 [2]: 44.7 µM | EC50 [3]: 0.141 µM

COc1cccc2c1C(=O)c1c(O)c3c(c(O)c1C2=O)C[C@@](O)(C(=O)CO)C[C@@H]3O[C@H]1C[C@H](N)[C@H](O)[C@H](C)O1 [DOXORUBICIN]
IC50 [1]: 1.64 µM | IC50 [2]: 24.7 µM

COc1ccc(-c2ccc(S(=O)(=O)N3CCN(CC(=O)c4cnc5ncccn45)CC3)cc2)cc1
IC50 [1]: 1.6 µM | IC50 [2]: 9.13 µM | EC50 [3]: 0.435 µM

O=C(CN1CCN(S(=O)(=O)c2cc(F)ccc2F)CC1)c1cnc2ncccn12
IC50 [1]: 1.26 µM | IC50 [2]: 26.5 µM | EC50 [3]: 0.648 µM

O=C(CN1CCN(S(=O)(=O)c2ccc(C(F)(F)F)cc2)CC1)c1cnc2ccccn12
IC50 [1]: 1.3 µM | IC50 [2]: 61.4 µM | EC50 [3]: 0.55 µM

O=C(CN1CCN(S(=O)(=O)c2cccc(Br)c2)CC1)c1cnc2ncccn12
IC50 [1]: 1.14 µM | IC50 [2]: 39 µM | EC50 [3]: 0.634 µM

COc1ccc(S(=O)(=O)N2CCN(CC(=O)c3cnc4ccccn34)CC2)cc1
IC50 [1]: 1.83 µM | IC50 [2]: 46.1 µM | EC50 [3]: 0.042 µM

O=C(CN1CCN(S(=O)(=O)c2ccc(F)cc2)CC1)c1cnc2ccccn12
IC50 [1]: 1.68 µM | IC50 [2]: 52.2 µM | EC50 [3]: 0.382 µM

Cc1ccc(S(=O)(=O)N2CCN(CC(=O)c3cnc4ncccn34)CC2)cc1
IC50 [1]: 1 µM | IC50 [2]: 39.6 µM | EC50 [3]: 0.105 µM

Nc1cccc(S(=O)(=O)N2CCCN(S(=O)(=O)c3ccc4c(c3)OCCO4)CC2)c1
IC50 [1]: 1.46 µM | IC50 [2]: 35.2 µM

O=C(CN1CCN(S(=O)(=O)c2ccc([N+](=O)[O-])cc2)CC1)c1cnc2ccccn12
IC50 [1]: 1.46 µM | IC50 [2]: 20.1 µM | EC50 [3]: 0.649 µM
